Measured values reported in publication PMC6332359, “Insecticidal and Nematicidal Activities of Novel Mimosine Derivatives” (Molecules, 2015).
Values joined by “and” are separate entries in the source; they are usually repeats but may differ in a detail not shown here. Equal values may be shown once. Read-outs that look alike come from different tables or passages of the source.

Tests used:
[1] = target: acetylcholinesterase (AChE) from termite whole bodies; assay: Acetylcholinesterase (AChE) inhibition, modified Ellman's method; type: biochemical, termites; conditions: crude enzyme from termite whole bodies; for IC50: pH 8.0, 25 °C, read-out: IC50 against AChE
Procedure: Whole bodies of termites (20 mg) were homogenized in 1 mL of 0.1 M phosphate buffer (pH 8.0), and the homogenate was centrifuged at 12,000 rpm for 20 min. The supernatant was used as the enzyme source. All procedural steps for preparing the crude enzyme were performed at 4 °C [26]. The AChE activity was measured using the modified Ellman’s method. Twenty-five microliters of sample was transferred into each well of a 96-well microplate containing 125 μL 0.1 M phosphate buffer (pH 8.0), and 30 μL of the enzyme solution was added to each well. The mixture was incubated for 10 min at 25 °C, after which 50 μL of 5,5′-dithiobis-(2-nitrobenzoic acid) (final concentration 0.4 mM) and 25 μL of acetylthiocholine iodide (final concentration 1 mM) were added. The control was treated by adding 25 μL water. Enzyme activity was measured for 20 min at 412 nm. The AChE inhibition assay was performed using four replicates of each treatment and was repeated two times. The inhibition rate of AChE activity was calculated as a percentage as follows: Inhibition (%) = (Ao − AE)/Ao × 100(1) where Ao is the absorbance of the control, and AE is the absorbance of the tested sample.

termites [2] = assay: No-choice contact assay against termites; type: in vivo; conditions: no-choice contact method, seven days treatment
Procedure: The no-choice bioassay method as described by Tawata et al. was used to evaluate insecticidal activity. […] Filter paper treated with ethanol and acetone was used as the control. After removing the solvent from treated filter paper by air drying at ambient temperature for 24 h, 20 termites were placed onto each paper. The dishes were covered and placed in incubator at ±23 °C. A few drops of distilled water were supplied daily to the bottom edge of each petri dish to maintain moisture during the experiment. The experiment was performed using four replicates of each treatment and was repeated two times. Mortality was evaluated after seven days treatment. […] Insect mortality rate was calculated as a percentage in comparison with the control group. Rotenone and fenitrothion were used as positive controls.

termites [3] = assay: Topical assay against termites (acute toxicity); type: in vivo; conditions: for LD50 against termites by topical application: worker termites, mortality after 48 h, mean ± SE of four replications; for Insecticidal activity relative to mimosine: higher than mimosine, from Table 1 LD50
Procedure: An acute toxicity bioassay was performed by topical application to worker termites. A series of seven different doses (0.25, 0.5, 1.5, 2.5, 7.5, 12.5, and 25 μg/termite) was prepared in ethanol solution for each tested sample. Aliquots (0.5 μL) of diluted samples were applied topically to the abdomens of worker termites. Controls were treated with 0.5 μL ethanol only. Termites were transferred into petri dishes (4.2-cm diameter) lined with filter paper and kept in an incubator at 23–25 °C. A few drops of distilled water were supplied daily to the bottom edge of each dish to maintain moisture during the experiment. Four replicates of 20 termites each were used per treatment. Fenitrothion and rotenone were used as positive controls. Mortality of insects was evaluated after 48 h treatment. […] LD50 values were calculated by probit analysis using Graphpad Prism 6.01 (GraphPad, La Jolla, CA, USA).

Caenorhabditis elegans = assay: Nematicidal activity assay, 96-well microplate method; type: in vivo
Procedure: The nematicidal activity assay was conducted according to previously described procedures with minor modifications. The nematode Caenorhabditis elegans was cultivated on nematode growth medium (NGM) [3 g NaCl, 15 g agar, 2.5 g polypeptone, 136.1 g KH2OP4, 17.9 g KOH, 1 mL 1 M MgSO4, 1 mL 1 M CaCl2, 1 mL cholesterol (5 mg/mL), and 500 μL ampicillin (100 μg/mL)] plate covered with Escherichia coli strain OP50. The ampicillin-resistant OP50 was used as a feed source to prevent cross-contamination of the nematode culture. The NGM plates contained high densities of worms after 4 days incubation at 20 °C. For preparation of synchronous worm culture, worms were rinsed from the agar plate with S-basal buffer (5.85 g NaCl, 1 g K2HPO4, 6 g KH2PO4, and 1 mL cholesterol [5 mg/mL ethanol]/L), washed twice with S-basal buffer, and added to household bleach/10 N NaOH solution. The supernatant was shaken for 10–15 min, washed three times by centrifugation for 1 min at 3000 rpm, and then resuspended in S-basal buffer. One hundred microliters of worm/OP50 (1.2 × 10^9 bacteria/mL) solution was transferred into each well of a 96-well plate, and 20 μL sample stock solution was added to give final concentrations 25, 50, 100, 250, and 500 μM. The plate was shaken thoroughly for 2–3 min and incubated at 20 °C. Water was used as a negative control. The experiment was performed using four replicates of each treatment and was repeated two times. Dead and active nematodes were recorded after 48 h treatment. Nematode mortality rate was calculated as a percentage in comparison with the control group.

[4] = read-out: Nematicidal activity IC50, C. elegans, 48 h treatment, 20 °C
[5] = Caenorhabditis elegans, C. elegans, 48 h treatment, 20 °C, read-out: Nematicidal activity IC50

SMILES	IC50 [1] [µM]	Mortality (%) (termites [2]; 5 μg/mL)	Mortality (%) (termites [2]; 10 μg/mL)	Mortality (%) (termites [2]; 15 μg/mL)	LD50 against termites by topical application (termites [3])	IC50 (Caenorhabditis elegans; [4]) [µM]	Mortality (%) (termites [2]; 50 μg/mL)	Mortality (%) (termites [2]; 100 μg/mL)	Mortality (%) (termites [2]; 250 μg/mL)	IC50 (Caenorhabditis elegans; [5]) [µM]	Insecticidal activity relative to mimosine (termites [3]) [times]	AChE inhibitory activity (in words) [1]	IC50 (Caenorhabditis elegans; Caenorhabditis elegans, 48 h, read-out: Nematicidal activity IC50, C. elegans, 48 h treatment, 20 °C) [µM]
COP(=S)(OC)Oc1ccc([N+](=O)[O-])c(C)c1 [Fenitrothion, reference compound]	182	26.9 ± 1.3	69.4 ± 0.6	83.8 ± 1.9	0.025 ± 0.0 g μg/insect	–	–	–	–	–	–	–	–
CCOP1(=S)N[C@@H](Cn2ccc(=O)c(O)c2)CO1 (stereo partly drawn) [Compound 1b, 1-(((4S)-2-Ethoxy-2-sulfido-1,3,2-oxazaphospholidin-4-yl)methyl)-3-hydroxypyridin-4(1H)-one]	104	–	–	–	0.7 μg/insect and 0.7 ± 0.1 ef μg/insect	50.2	52%–62% and 52.5 ± 3.5 ab %	71%–88% and 71.9 ± 1.3 b %	84.4 ± 2.2 ab %	–	–	–	–
N[C@H](CO)Cn1ccc(=O)c(O)c1 [Mimosinol, mimosinol]	–	–	–	–	1.2 ± 0.2 de μg/insect	–	38.1 ± 1.3 cde %	52.5 ± 2.7 de %	68.5 ± 0.6 c %	376	> 30	–	–
[2H]C([2H])(O)[C@@H](N)Cn1ccc(=O)c(O)c1 [D-mimosinol, deuterated mimosinol]	–	–	–	–	1.8 ± 0.3 d μg/insect	–	33.1 ± 1.9 de %	53.8 ± 3.8 de %	60.6 ± 0.6 cd %	390	> 30	–	–
CCCOP1(=S)N[C@@H](Cn2ccc(=O)c(O)c2)CO1 (stereo partly drawn) [Compound 2c, 3-Hydroxy-1-(((4S)-2-propoxy-2-sulfido-1,3,2-oxazaphospholidin-4-yl)methyl)pyridin-4(1H)-one]	–	–	–	–	3.1 ± 0.5 b μg/insect	218	29.4 ± 1.9 e %	44.4 ± 1.9 e %	52.5 ± 3.8 d %	–	–	–	–
O=c1cc(CO)occ1O [kojic acid]	5480	–	–	–	–	–	–	–	–	328	–	not active	–
C=C(C)[C@H]1Cc2c(ccc3c2O[C@@H]2COc4cc(OC)c(OC)cc4[C@@H]2C3=O)O1 [Rotenone, rotenone, reference compound]	–	–	–	–	0.8 ± 0.2 ef μg/insect	–	48.8 ± 0.9 bc %	68.1 ± 1.3 bc %	80.0 ± 0.9 b %	–	–	–	–
COP1(=S)N[C@@H](Cn2ccc(=O)c(O)c2)CO1 (stereo partly drawn) [Compound 1a, 3-Hydroxy-1-(((4S)-2-methoxy-2-sulfido-1,3,2-oxazaphospholidin-4-yl)methyl)pyridin-4(1H)-one]	95.9	–	–	–	0.5 μg/insect and 0.5 ± 0.1 fg μg/insect	31.8	52%–62% and 62.5 ± 1.8 a %	71%–88% and 88.8 ± 0.9 a %	90.6 ± 1.3 a %	–	–	–	–
CCOP1(=S)N[C@@H](Cn2ccc(=O)c(O)c2)CO1 (stereo partly drawn) [Compound 2b, 1-(((4S)-2-ethoxy-2-sulfido-1,3,2-oxazaphospholidin-4-yl)methyl)-3-hydroxypyridin-4(1H)-one]	–	–	–	–	2.1 ± 0.4 c μg/insect	187	42.5 ± 2.5 bcd %	52.5 ± 2.5 de %	63.8 ± 0.0 c %	–	–	–	–
CCCOP1(=S)N[C@@H](Cn2ccc(=O)c(O)c2)CO1 (stereo partly drawn) [Compound 1c, 3-Hydroxy-1-(((4S)-2-propoxy-2-sulfido-1,3,2-oxazaphospholidin-4-yl)methyl)pyridin-4(1H)-one]	–	–	–	–	0.8 ± 0.1 ef μg/insect	–	45.6 ± 0.4 bc %	59.4 ± 1.3 cd %	77.5 ± 0.9 b %	–	–	–	116
COP1(=S)N[C@@H](Cn2ccc(=O)c(O)c2)CO1 (stereo partly drawn) [Compound 2a, 3-Hydroxy-1-(((4S)-2-methoxy-2-sulfido-1,3,2-oxazaphospholidin-4-yl)methyl)pyridin-4(1H)-one]	–	–	–	–	1.2 ± 0.2 de μg/insect	252	48.8 ± 2.5 bc %	70.6 ± 0.6 b %	82.5 ± 1.3 ab %	–	–	–	–
NC(Cn1ccc(=O)c(O)c1)C(=O)O (stereo not drawn) [Mimosine, β-[N-(3-hydroxy-4-oxypyridyl)]-α-aminopropionic acid]	1530	–	–	–	54.1 ± 5.9 a μg/insect	–	2.5 ± 1.1 f %	7.5 ± 1.0 f %	9.1 ± 2.0 e %	16.8	–	not active	–
